Laboratory results: patent US20260224577A1, “METHODS OF TREATING HEART FAILURE WITH VIBEGRON” (SUMITOMO PHARMA CO., LTD., priority 2021, published 2026)
pEC50: −log10 of the molar value.

What was measured:
β3-adrenergic receptor = biological target: T1, β3-adrenergic receptor (Homo sapiens, UniProt P13945); test: Functional cellular cAMP (HTRF) assay, HEK293 cells expressing β3-ARs; assay type: cell-based
T1 construct: expressed in transfected cells; host or cells: HEK293
Method: (§1) The potency and maximal effect of vibegron and mirabegron for β3-adrenergic receptors and the selectivity for each […] receptor were determined. Functional cellular assays for vibegron and mirabegron activity were performed using Chinese hamster ovary (CHO) cells expressing β1- or β2-ARs and human embryonic kidney (HEK) 293 cells expressing β3-ARs. Cells were incubated with vibegron, mirabegron, or the appropriate control (isoproterenol for β1 and β3, procaterol for β2). Responses were quantified using homogeneous time-resolved fluorescence of cyclic adenosine monophosphate. Half-maximal effective concentration (EC50) and maximum response (Emax) values were determined by nonlinear least-squares regression analysis.

[1] = tested on: subjects with NYHA class II-III HF and LVEF <40%; settings: BEAT-HF trial; cited from earlier work
β1-adrenergic receptor = biological target: T2, β1-adrenergic receptor (Homo sapiens, UniProt P08588); test: Functional cellular cAMP (HTRF) assay, CHO cells expressing β1-ARs; assay type: cell-based; settings: relative to isoproterenol
T2 construct: expressed in transfected cells; host or cells: CHO
T2 sequence (P08588 whole entry): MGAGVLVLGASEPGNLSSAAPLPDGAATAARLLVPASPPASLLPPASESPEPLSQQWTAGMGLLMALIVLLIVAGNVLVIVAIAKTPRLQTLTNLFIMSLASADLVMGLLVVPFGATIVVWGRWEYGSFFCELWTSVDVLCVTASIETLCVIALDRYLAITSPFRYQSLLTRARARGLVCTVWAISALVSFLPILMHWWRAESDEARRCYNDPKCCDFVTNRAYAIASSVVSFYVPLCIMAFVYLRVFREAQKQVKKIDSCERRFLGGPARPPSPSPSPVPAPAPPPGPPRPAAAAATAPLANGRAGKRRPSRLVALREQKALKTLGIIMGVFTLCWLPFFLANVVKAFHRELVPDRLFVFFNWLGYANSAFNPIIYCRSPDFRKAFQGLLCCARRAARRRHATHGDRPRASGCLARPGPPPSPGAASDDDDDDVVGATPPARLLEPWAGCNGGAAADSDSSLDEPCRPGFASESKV
Method: as §1

β2-adrenergic receptor = biological target: T3, β2-adrenergic receptor (Homo sapiens, UniProt P07550); test: Functional cellular cAMP (HTRF) assay, CHO cells expressing β2-ARs; assay type: cell-based; settings: relative to procaterol
T3 construct: expressed in transfected cells; host or cells: CHO
T3 sequence (P07550 whole entry): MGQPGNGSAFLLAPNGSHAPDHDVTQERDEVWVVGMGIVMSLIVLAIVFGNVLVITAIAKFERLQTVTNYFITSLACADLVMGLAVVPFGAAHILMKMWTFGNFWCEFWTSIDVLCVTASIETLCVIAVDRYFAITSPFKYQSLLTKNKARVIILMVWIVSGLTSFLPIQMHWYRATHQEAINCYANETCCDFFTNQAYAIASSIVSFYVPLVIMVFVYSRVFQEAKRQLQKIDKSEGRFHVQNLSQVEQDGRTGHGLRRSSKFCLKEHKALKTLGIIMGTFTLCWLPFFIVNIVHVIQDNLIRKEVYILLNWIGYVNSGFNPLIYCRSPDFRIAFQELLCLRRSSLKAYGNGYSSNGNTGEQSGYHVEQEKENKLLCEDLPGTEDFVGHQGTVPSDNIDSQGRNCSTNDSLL
Method: as §1

[2] = tested on: elderly patients with heart failure, including a subgroup with HFpEF; settings: cited from earlier work

T1 sequence (P13945 whole entry): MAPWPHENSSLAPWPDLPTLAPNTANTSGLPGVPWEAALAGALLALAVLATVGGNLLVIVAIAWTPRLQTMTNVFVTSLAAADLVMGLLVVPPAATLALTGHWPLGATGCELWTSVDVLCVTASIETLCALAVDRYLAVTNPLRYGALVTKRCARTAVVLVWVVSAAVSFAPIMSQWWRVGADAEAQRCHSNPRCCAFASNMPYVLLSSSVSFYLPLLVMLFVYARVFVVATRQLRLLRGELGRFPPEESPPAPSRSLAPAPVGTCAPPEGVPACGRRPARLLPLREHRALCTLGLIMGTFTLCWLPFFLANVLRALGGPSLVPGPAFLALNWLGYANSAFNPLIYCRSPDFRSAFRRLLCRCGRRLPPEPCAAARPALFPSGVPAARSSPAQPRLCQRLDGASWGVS

β3-adrenergic activity relative to isoproterenol (% Activity) (β3-adrenergic receptor; 10 μM, HEK293 cells) [%]	Emax (β3-adrenergic receptor; HEK293, estimated by nonlinear least-squares regression, read-out: Emax (maximum response) at the β3-AR) [%]	pEC50 (β3-adrenergic receptor; HEK293 cells expressing β3-ARs, cAMP, read-out: Mean (SEM) EC50 at the β3-AR)	β1-adrenergic activity (% Activity) (β1-adrenergic receptor) [%]	β2-adrenergic activity (% Activity) (β2-adrenergic receptor) [%]	Compound	Primary endpoint (change in LVEF) [1]	Treatment of heart failure [2]
88	80.4	8.00	3	15	Nc1nc(CC(=O)Nc2ccc(CCNC[C@H](O)c3ccccc3)cc2)cs1 [Mirabegron]	failed to meet the primary endpoint	–
–	–	–	–	–	OC(CNCC(O)C1CCc2cc(F)ccc2O1)C1CCc2cc(F)ccc2O1 (stereo not shown) [nebivolol]	–	some success in treating heart failure in elderly patients
